pIC50: −log10 of the molar value. Like-named read-outs stand apart in the source and are kept apart here.
Experiments:
[1] = tested on: mouse epidermal cell culture; experiment: mouse epidermal cell culture, cell proliferation by uptake of tritiated thymidine into DNA; type: cell-based; conditions: for percentage uptake in comparison to the standards (TRA, CRA): all time points; for activity at 12 µg/mL: Mus musculus, read-out: percentage uptake of tritiated thymidine relative to vehicle control (100%)
[2] = tested on: mouse epidermal cell culture; experiment: mouse epidermal cell culture, anti-differentiation activity (Kreyberg staining and nuclei enumeration); type: cell-based; set-up: key to culture staining by the Kreyberg technique, score (maximum differentiation 10): Kreyberg staining score; 10 = maximum differentiation; key to nuclei enumeration, score (maximum differentiation 0): nuclei enumeration score; 0 = maximum differentiation; conditions: 12 ug/ml; for culture staining by the Kreyberg technique, score (maximum differentiation 10): first number of the ratio; for nuclei enumeration, score (maximum differentiation 0): second number of the ratio
Excerpt: (§1) Compounds of this invention are active against various skin disorders, such as acne and psoriasis, when tested according to models considered to be predictive of the clinical condition in humans. The models used were the rhino mouse procedure (Kligman, et al., J. Investigative Dermatology 73, 354 (1979)), the rabbit comedolytic procedure (Mills O. H., Kligman A. M.: Assay of Comedolytic Agents in the Rabbit Ear, Animal Models in Dermatology; Relevance to Human Dermatopharmacology and Dermatotoxicology,edited by H. I. Maibach, New York Churchill-Livingston, 1975, pp. 176-183) and the mouse epidermal cell culture procedure (Marcelo, et al., J. Cell Biol., 79, 356 (1978). Testing was done comparatively against standard retinoids known to be effective in these disorders and against a known α-methyl retinoid (2,7-dimethyl-9-(2,6,6-trimethyl-1-cyclohexene-1-yl)-2,3,6,8-nonatetraenoic acid, referred to as DTCNA).
The ratios in the table represent scoring of two measured parameters, culture staining by the Kreyberg technique (maximum differentiation 10) and nuclei enumeration (maximum differentiation 0). Thus the highest possible anti-differentiative activity would be given by the ratio 0/10.

[3] = tested on: 5-Lipoxygenese pathway (LOX, Rat PMN); experiment: lipoxygenase pathway inhibition assay (14C-arachidonic acid oxidation by neutrophil homogenate); type: biochemical; conditions: concentration required for inhibition of the 5-Lipoxygenese pathway; read-out: LOX, Rat PMN (I50)
rabbit ear comedones = experiment: rabbit comedolytic procedure (rabbit ear model); type: in vivo; conditions: concentration of 0.05%, compared with TRA
Excerpt: as §1
(§2) Activity equal to or greater than the standards and the known compound was shown by 2,5,9-trimethyl-11-(2,6,6-trimethyl-1-cyclohexene-1-yl)-2,4,6,8,10-undecapentaenoic acid (TTCUA).

[4] = tested on: rhino mouse utriculi (pseudocomedones); experiment: rhino mouse procedure; type: in vivo; conditions: rhino mouse model, concentration 0.05%
Excerpt: as §1, §2

[5] = 72 h, 12 ug/ml, day 3 of culture exposure to drug
[6] = 120 h, 12 ug/ml, day 5 of culture exposure to drug
[7] = 240 h, 12 ug/ml, day 10 of culture exposure to drug

Row | pIC50 [3] | Compound | culture staining by the Kreyberg technique, score (maximum differentiation 10) ([2]; day 3) | nuclei enumeration, score (maximum differentiation 0) ([2]; day 3) | culture staining by the Kreyberg technique, score (maximum differentiation 10) ([2]; day 6) | nuclei enumeration, score (maximum differentiation 0) ([2]; day 6) | culture staining by the Kreyberg technique, score (maximum differentiation 10) ([2]; day 10) | nuclei enumeration, score (maximum differentiation 0) ([2]; day 10) | further results
1 | – | CC1=C(/C=C/C(C)=C/C=C/C(C)=C\C(=O)O)C(C)(C)CCC1 [CRA] | 2 | 7 | 2 | 7 | 2 | 6.5 | percentage uptake of tritiated thymidine relative to vehicle control (100%) ([1]; 12 ug/ml, day 3 of culture exposure to drug): 47%; percentage uptake of tritiated thymidine relative to vehicle control (100%) ([1]; 12 ug/ml, day 5 of culture exposure to drug): 75%; percentage uptake of tritiated thymidine relative to vehicle control (100%) ([1]; 12 ug/ml, day 10 of culture exposure to drug): 64%
2 | – | CC(C=CC1=C(C)CCCC1(C)C)=CC=CC=C(C)C(=O)O [DTCNA] | 3 | 6 | 2 | 6 | 2 | 5 | percentage uptake in comparison to the standards (TRA, CRA) ([1]; 12 ug/ml): about the same; activity at 12 µg/mL [1, 5]: 53%; activity at 12 µg/mL [1, 6]: 61%; activity at 12 µg/mL [1, 7]: 60%
3 | 4.89 | CC\C(=C/C=C(C)/C=C/C=C(C)/C=C/C1=C(C)CCCC1(C)C)C(=O)O [Example 3B, 5,9-Dimethyl-2-Ethyl-11-(2,6,6-Trimethyl-1-Cyclohexen-1-yl)-2,4,6,8,10-Undecapentaenoic Acid] | – | – | – | – | – | – | –
4 | 5.70 | CC(/C=C/c1ccc(OCc2ccccc2)cc1)=C\C=C\C(=O)O [Example 6, 7-(4-Benzyloxyphenyl)-5-Methyl-Hepta-2,4,6-Trienoic Acid] | – | – | – | – | – | – | –
5 | 5.00 | COc1cc(C)c(/C=C/C(C)=C/C=C/C(=O)O)c(C)c1C [Example 8, 7-(4-Methoxy-2,3,6-Trimethylphenyl)-5-Methyl-Hepta-2,4,6-Trienoic Acid] | – | – | – | – | – | – | –
6 | – | CC1=C(/C=C/C(C)=C/C=C/C(C)=C/C=C(\C)C(=O)O)C(C)(C)CCC1 [TTCUA, 2,5,9-trimethyl-11-(2,6,6-trimethyl-1-cyclohexene-1-yl)-2,4,6,8,10-undecapentaenoic acid] | 2 | 6 | 0.5 | 8.5 | 1 | 7.5 | ability to reduce comedone size (rabbit ear comedones): equal to trans retinoic acid (TRA); epidermal hyperplasia of the skin [4]: moderate epidermal hyperplasia; ability to reduce the amount of horny impaction in the utriculi ([4]; compared with TRA): equal to TRA; ability to reduce the size of utriculi (pseudocomedones) ([4]; compared with TRA): equal to TRA; skin wrinkling ([4]; versus untreated control animals): significantly less wrinkling; percentage uptake in comparison to the standards (TRA, CRA) ([1]; 12 ug/ml): up to five fold less; activity at 12 µg/mL [1, 5]: 31%; activity at 12 µg/mL [1, 6]: 15%; activity at 12 µg/mL [1, 7]: 21%; anti-differentiation activity ([2]; mouse epidermal cell culture): more active in both parameters than the two standards and high

Row | Compound | pIC50 [3] | culture staining by the Kreyberg technique, score (maximum differentiation 10) ([2]; day 3) | nuclei enumeration, score (maximum differentiation 0) ([2]; day 3) | culture staining by the Kreyberg technique, score (maximum differentiation 10) ([2]; day 6) | nuclei enumeration, score (maximum differentiation 0) ([2]; day 6) | culture staining by the Kreyberg technique, score (maximum differentiation 10) ([2]; day 10) | nuclei enumeration, score (maximum differentiation 0) ([2]; day 10) | further results
7 | CC1=C(/C=C/C(C)=C/C=C/C(C)=C/C(=O)O)C(C)(C)CCC1 [TRA, trans retinoic acid] | 4.05 | 3 | 5 | 3 | 5 | 2 | 6 | activity at 12 µg/mL ([1]; 72 h): 77%; activity at 12 µg/mL ([1]; 120 h): 53%; activity at 12 µg/mL ([1]; 240 h): 36%

— patent publication US4534979A, “Polyene compounds useful in the treatment of psoriasis and allergic responses” (USV Pharmaceutical Corp., priority 1984, dated 1985)
